# Source: patent US7538096B2, “Treatment and prevention of abnormal cellular proliferation” (The General Hospital Corporation, priority 2004, dated 2009)
# Like-named read-outs stand apart in the source and are kept apart here.
# Experiments:
# coagulation [1] = assay: coagulation time (FIG. 13); conditions: for coagulation time: FIG. 13
# [2] = histology of tumor tissue and organs from SCID mice bearing A549 cell tumor (FIGS. 14-18); format: in vivo
# tumor grown in SCID mice = assay: apoptosis index in tumor grown in SCID mice (FIG. 19); format: in vivo
# [3] = system: pulmonary fibrosis in response to bleomycin; assay: pulmonary fibrosis in the rat in response to bleomycin; format: in vivo
# fibroblast [4] = conditions: Dahlberg et al. Am Rev. Respir. Dis. 143:A357, 1993; cited from earlier work
# fibroblast [5] = assay: fibroblast proliferation; format: cell-based; conditions: unpublished data
# [6] = system: pulmonary artery smooth muscle cell; conditions: in vivo, FIG. 4
# [7] = system: pulmonary hypertension induced by hypoxia; conditions: pig lung, FIG. 5
# [8] = system: bovine pulmonary artery smooth muscle cells; conditions: in vitro, in comparison to non-acylated heparin fragments
# [9] = system: A549 (non-small cell lung carcinoma) cell tumor; assay: A549 cell tumor growth in SCID mice (FIGS. 6-8); format: in vivo; conditions: dose dependent
# [10] = system: DMS79 (small cell lung carcinoma) cell tumor; assay: DMS79 cell tumor growth in SCID mice (FIGS. 9-10); format: in vivo; conditions: dose dependent
# [11] = system: HCT116 (colon cancer) cell tumor; assay: HCT116 cell tumor growth in SCID mice (FIGS. 11-12); format: in vivo; conditions: dose dependent
# Rb = assay: expression of Rb gene product in A549 cell tumor tissue (FIG. 21); format: in vivo; conditions: A549 cell tumor tissue grown in SCID mice, dose dependent, lesser effect than on p27/KIP1, FIG. 21
# E2F1 = assay: expression of E2F1 protein in A549 cell tumor tissue (FIG. 22); format: in vivo; conditions: A549 cell tumor tissue grown in SCID mice, dose dependent
# coagulation [12] = assay: anticoagulant property (no test named)
# p27/KIP1 = conditions: A549 cell tumor tissue grown in SCID mice, dose dependent, FIG. 20
substance,measurement,setting,value
"heparin [Native heparin, reference compound]",coagulation time,coagulation [1],increased
same,hemorrhage in A549 cell tumor tissue (histology),"[2]; 100 mg/kg, SCID mice, FIG. 14",Hemorrhage was detected
same,apoptosis index,tumor grown in SCID mice,significantly induces apoptosis
same,pulmonary fibrosis,[3],can inhibit
same,fibroblast proliferation,fibroblast [4],can inhibit
O-Hexanoyl derivative of periodate-oxidized heparin fragments [hexanoylated heparin],fibroblast proliferation,fibroblast [5],can also inhibit
same,pulmonary artery smooth muscle cell proliferation,[6],significantly inhibited
same,development of pulmonary hypertension,[7],significantly inhibited
same,antiproliferative effect,[8],significantly enhanced
O-butanoylated LMW Heparin [butanoylated heparin],tumor growth,[9]; FIG. 6,significantly inhibited
same,tumor weight,[9]; FIG. 7,significantly decreased
same,percent inhibition of tumor growth,[9]; FIG. 8,significantly inhibited
same,tumor growth,[10]; FIG. 9,significantly inhibited
same,tumor weight,[10]; FIG. 10,significantly decreased
same,tumor growth,[11]; FIG. 11,significantly inhibited
same,tumor growth,[11]; FIG. 12,significantly inhibited
same,coagulation time,coagulation [1],no significant effect
same,anticoagulant effects,"coagulation [1]; compared to non-acylated controls, FIGS. 13 and 14",very low
same,"toxic effect on heart, liver, kidney, and lung","[2]; animals tested, FIG. 15-18",no toxic effect
same,apoptosis index,tumor grown in SCID mice,induction of apoptosis
same,expression of Rb gene product,Rb,decreased
same,expression of E2F1 protein,E2F1,significantly inhibited
same,fibroblast proliferation,fibroblast [5],can also inhibit
same,anticoagulant property,coagulation [12],virtually no
same,expression of p27/KIP1 gene product,p27/KIP1,significantly inhibited
